Activity calls are given as the source filed them. The rule behind the calls is not given here.
Assays:
AGS [1] = test: Induction of apoptosis in TRAIL-resistant human AGS cells assessed as decrease in cell viability at 2 uM after 24 hrs in presence of TRAIL (reference value: 9%); assay type: functional
AGS [2] = test: Induction of apoptosis in TRAIL-resistant human AGS cells assessed as decrease in cell viability at 5 uM after 24 hrs in presence of TRAIL (reference value: 9%); assay type: functional
AGS [3] = test: Induction of apoptosis in TRAIL-resistant human AGS cells assessed as decrease in cell viability at 20 uM after 24 hrs in presence of TRAIL (reference value: 9%); assay type: functional
AGS [4] = test: Induction of apoptosis in TRAIL-resistant human AGS cells assessed as decrease in cell viability at 40 uM after 24 hrs in presence of TRAIL (reference value: 9%); assay type: functional
AGS [5] = test: Induction of apoptosis in TRAIL-resistant human AGS cells assessed as decrease in cell viability at 7.5 uM after 24 hrs in presence of TRAIL (reference value: 9%); assay type: functional
AGS [6] = test: Induction of apoptosis in TRAIL-resistant human AGS cells assessed as decrease in cell viability at 10 uM after 24 hrs in presence of TRAIL (reference value: 9%); assay type: functional
AGS [7] = test: Induction of apoptosis in TRAIL-resistant human AGS cells assessed as decrease in cell viability at 3 uM after 24 hrs in presence of TRAIL (reference value: 9%); assay type: functional
AGS [8] = test: Induction of apoptosis in TRAIL-resistant human AGS cells assessed as increase in death receptor 5 protein level at 3 uM after 6 hrs by Western blotting analysis; assay type: functional
AGS [9] = test: Induction of apoptosis in TRAIL-resistant human AGS cells assessed as fold increase in caspase 3/7 at 3 uM after 24 hrs by Caspase-Glo 3/7 assay kit; assay type: functional
AGS [10] = test: Induction of apoptosis in TRAIL-resistant human AGS cells assessed as ROS-mediated increase in death receptor 5 protein level at 3 uM after 6 hrs pretreated with NAC by Western blotting analysis; assay type: functional, cell-based
AGS [11] = test: Induction of apoptosis in TRAIL-resistant human AGS cells assessed as population of apoptotic cells after 6 hrs by annexin-V-FLOUS/ propidium iodide staining based flow cytometry in presence of TRAIL; assay type: functional
AGS [12] = test: Induction of apoptosis in TRAIL-resistant human AGS cells assessed as increase in p53 protein level at 3 uM after 6 hrs by Western blotting analysis; assay type: functional, cell-based
AGS [13] = test: Induction of apoptosis in TRAIL-resistant human AGS cells assessed as fold increase in caspase 3/7 at 3 uM after 24 hrs by Caspase-Glo 3/7 assay kit in presence of TRAIL; assay type: functional
AGS [14] = test: Induction of mitochondrial membrane depolarization in human AGS cells assessed as depolarized cells after 24 hrs by JC-1 staining-based flow cytometric analysis (reference value: 27.1%); assay type: functional
AGS [15] = test: Induction of apoptosis in TRAIL-resistant human AGS cells assessed as population of apoptotic cells after 6 hrs by annexin-V-FLOUS/ propidium iodide staining based flow cytometry in presence of pan-caspase inhibitor z-VAD-FMK; assay type: functional
AGS [16] = test: Induction of apoptosis in TRAIL-resistant human AGS cells assessed as fold increase in caspase 3/7 at 5 uM after 24 hrs by Caspase-Glo 3/7 assay kit; assay type: functional
AGS [17] = test: Induction of apoptosis in TRAIL-resistant human AGS cells assessed as population of apoptotic cells after 6 hrs by annexin-V-FLOUS/ propidium iodide staining based flow cytometry; assay type: functional
AGS [18] = test: Induction of apoptosis in TRAIL-resistant human AGS cells assessed as fold increase in caspase 3/7 at 5 uM after 24 hrs by Caspase-Glo 3/7 assay kit in presence of TRAIL; assay type: functional
AGS [19] = test: Induction of apoptosis in TRAIL-resistant human AGS cells assessed as decrease in cell viability at 17.5 uM after 24 hrs in presence of TRAIL (reference value: 9%); assay type: functional

**Q.** For `CC(C)=CCc1c2c(c3oc(-c4cc(O)c(O)cc4O)c(CC=C(C)C)c(=O)c3c1O)C=CC(C)(C)O2`, which Activity (AGS [1]) is on record?
**A.** 46%

**Q.** `CC(C)=CCC/C(C)=C/Cc1c(O)c(CC=C(C)C)c(O)c2c(=O)c(CC=C(C)C)c(-c3cc(O)c(O)cc3O)oc12` was tested. Which Activity (AGS [2]) did it give?
**A.** 30%

**Q.** For `CC(C)=CCc1cc(/C=C/c2cc(O)cc(O)c2)cc(CC=C(C)C)c1O`, which Activity (AGS [3]) is on record?
**A.** 25%

**Q.** For `COc1c(/C=C/c2cc(O)cc(O)c2)cc(CC=C(C)C)c(O)c1CC=C(C)C`, which Activity (AGS [4]) is on record?
**A.** 40%

**Q.** How did the Activity (AGS [5]) turn out when `CC(C)=CCc1c(O)c(CC=C(C)C)c2oc(-c3cc(O)c(O)cc3O)c(CC=C(C)C)c(=O)c2c1O` was run?
**A.** 30%

**Q.** How did the Activity (AGS [6]) turn out when `C=C(C)[C@H]1Cc2c(oc3c4c(cc(O)c3c2=O)OC(C)(C)C=C4)-c2c(O)cc(O)c(O)c21` [ARTOBILOXANTHONE] was run?
**A.** 32%

**Q.** `CC(C)=CCc1c(-c2cc(O)c(O)cc2O)oc2c3c(cc(O)c2c1=O)OC(C)(C)C=C3` [ARTONIN E] was tested. Which Activity (AGS [7]) did it give?
**A.** 44%

**Q.** What about the “fold change (FC)” value (AGS [8]) of the same molecule?
**A.** 1.9

**Q.** And the “fold change (FC)” value (AGS [9])?
**A.** 3.7

**Q.** And the Activity (AGS [10])?
**A.** inactive

**Q.** What about the “inhibition (INH)” value (AGS [11]) of the same molecule?
**A.** 32.7%

**Q.** What about the Activity (AGS [12]) of the same molecule?
**A.** Active

**Q.** And the “fold change (FC)” value (AGS [13])?
**A.** 12.2

**Q.** And the Activity (AGS [14])?
**A.** 58.4%

**Q.** And the “inhibition (INH)” value (AGS [15])?
**A.** 2.9%

**Q.** What about the “fold change (FC)” value (AGS [16]) of the same molecule?
**A.** 11.1

**Q.** And the “inhibition (INH)” value (AGS [17])?
**A.** 3.6%

**Q.** And the “fold change (FC)” value (AGS [18])?
**A.** 34.3

**Q.** `C=C(C)[C@H]1Cc2c(oc3c(CC=C(C)C)c(O)c(CC=C(C)C)c(O)c3c2=O)-c2c(O)cc(O)c(O)c21` [ARTORIGIDIN A] was tested. Which Activity (AGS [5]) did it give?
**A.** 26%

**Q.** For `CC(C)=CCc1c(-c2ccc(O)cc2O)oc2cc3c(c(O)c2c1=O)C=CC(C)(C)O3` [CUDRAFLAVONE B], which Activity (AGS [4]) is on record?
**A.** 27%

**Q.** With `CC(C)=CCc1c(-c2cc(O)c(O)cc2O)oc2c(CC=C(C)C)c3c(c(O)c2c1=O)C=CC(C)(C)O3` [HETEROPHYLLIN] as the molecule, how does the Activity (AGS [1]) read?
**A.** 31%

**Q.** For `O=c1cc(-c2ccc(O)c(O)c2)oc2cc(O)cc(O)c12` [LUTEOLIN], which Activity (AGS [19]) is on record?
**A.** 9%

**Q.** `CC(C)=CCc1c(-c2ccc(O)cc2O)oc2c3c(cc(O)c2c1=O)OC(C)(C)C=C3` [MORUSIN] was tested. Which Activity (AGS [4]) did it give?
**A.** 25%

Source: ChEMBL document CHEMBL3393038, “Prenylated flavonoids and resveratrol derivatives isolated from Artocarpus communis with the ability to overcome TRAIL resistance” (2015)
